Results reported in paper PMC5917093, “Brain Transport Profiles of Ginsenoside Rb1 by Glucose Transporter 1: In Vitro and in Vivo” (Frontiers in Pharmacology, 2018).
Like-named read-outs stand apart in the source and are kept apart here.

Assays:
[1] = test system: rBMEC (primary cultured rat brain microvascular endothelial cells); test: Uptake of Rb1 by primary cultured rBMEC (time course, temperature, concentration dependence, Michaelis-Menten kinetics); type: in vitro ADME
Description: Isolation and culture of rat brain microvessel endothelial cells were operated according to previous studies with some modifications ([Liu et al., 2013]). The isolated rBMEC was seeded in cultured flasks coated with 2% gelatin and cultured in culture medium. The culture medium consisted of DMEM/F12 supplemented with 20% FBS, 2 mM L-glutamine, heparin (50 mg/L), 100 IU/mL penicillin, 100 μg/mL streptomycin, and NaHCO3 (0.5 g/L). On the first day after seeding, the culture medium was replaced, after which the culture medium was replaced every 2 days. At 5–6 days, the rBMEC was transferred to 6-well plates coated with gelatin and cultured in an incubator with a saturated humidity at 37°C in 5% CO2 and 95% air. Transport studies were performed when cells reached 100% confluency. The endothelial phenotype of the rBMEC was identified by staining for the endothelial cell marker vWF using a confocal laser scanning microscope (Leica TCS SP8).
When rBMEC was grown to 100% confluency in gelatin-coated 6-well plates, uptake experiments were performed. Briefly, the cultured cell monolayer was washed three times with 1 mL of pH 7.4 Hanks’ balanced salt solution (HBSS). The cultured rBMEC was pre-incubated for 30 min in 1 mL HBSS at 37 or 4°C. After pre-incubation, the HBSS solution was removed by suction, and HBSS (1 mL) containing 60 μg/mL Rb1 was added to initiate uptake. Then the cells were incubated at 37 or 4°C at a set time (5, 10, 15, 30, 60, 120, and 240 min). After the end of the incubation, the incubation solution was aspirated and the monolayers were carefully washed three times with 1 mL ice-cold HBSS to terminate the uptake. Then, 0.5 mL ultrapure water was added to each incubated well, and the material in the wells was frozen (at -80°C)/thawed (at room temperature) repeatedly four times to lyse cells. After the solubilized, the monolayer supernatants were collected and 10 μL was injected into LC–MS/MS to determine Rb1 concentration. The protein contents of the cell monolayers were measured by the method of Bradford using BSA as the standard ([Bradford, 1976]). Uptake was expressed as the cell-to-medium ratio (μL/mg protein or μL/mg protein/min) and termed the volume of distribution (Vd), obtained by dividing the uptake amount by the concentration of substrate in the transport medium. Vd is derived from the ratio of ng/mg protein to ng/μL buffer.
The uptake data were fitted to the above equation by nonlinear least-squares regression analysis with Graphpad Prism 5.0 software.
(§1) HPLC–MS/MS was composed by a Shimadzu LC-20A chromatographic system and an API 4000 mass spectrometer equipped with electrospray ionization (ESI) source system. MS/MS detection was performed on an API 4000 mass spectrometer using multiple reaction monitoring (MRM) mode by monitoring the fragmentation of m/z 1107.6 → 179.0 for Rb1 and m/z 779.4 → 345.2 for digoxin (IS). Chromatographic separations were carried out on a Shim-pack XD-ODS column (2.0 mm × 30 mm, 2.2 μm) with a Shim-pack GVD-ODS (2.0 mm × 5 mm, 4.6 μm) guard column (Shimadzu, Japan) at a flow rate of 0.28 mL/min using 10 mM acetic acid in water (phase A) and methanol (phase B) as mobile phase. A linear step gradient elution was performed as followed: phase B was increased from 45 to 90% within the first 3 min, and decreased to 45% within the next 3 min (total gradient time: 6 min). A 10 μL sample was injected into the system with the auto-sample conditioned at 4°C and column temperature maintained at 40°C.
The biological samples (100 μL) were placed in a 1.5 mL Eppendorf tube, and mixed with 10 μL IS solution (500 ng/mL) for 3 min by vortexing. The mixture was extracted with methanol (0.9 mL) by vortexing, and then centrifuged at 14,000 rpm for 5 min. The supernatant (0.8 mL) was transferred to a new 1.5 mL Eppendorf tube and evaporated to dryness under vacuum. The dried residue was reconstituted with 100 μL methanol, vortex-mixed for 30 s, and centrifuged at 14,000 rpm for 5 min. […]

[2] = Effect of phloretin on distribution of Rb1 in plasma and brain of normal rats; type: in vivo, rat; conditions: Rb1 10 mg/kg i.v.; for concentration at 0.5 h / concentration at 2 h / concentration at 6 h: rat
Description: Rats were randomly divided into two groups in 36 of each group. One group served as the control and another group were treated with phloretin. Dose of phloretin was set to be 5 mg/kg. Rb1 (10 mg/kg, i.v.) was administered to the experimental rats after i.v. administration of phloretin or saline for consecutive 1 week. Six rats from each group were selected and the blood samples were collected into heparinized Eppendorf tubes via the abdominal aorta at 0.5, 2, and 6 h after Rb1 administration. Then, brain samples were immediately collected. The plasma samples were obtained by centrifuging at 1000 × g for 10 min. Plasma and brain samples were frozen at -80°C until analysis.
as §1
The biological samples (100 μL) were placed in a 1.5 mL Eppendorf tube, and mixed with 10 μL IS solution (500 ng/mL) for 3 min by vortexing. The mixture was extracted with methanol (0.9 mL) by vortexing, and then centrifuged at 14,000 rpm for 5 min. The supernatant (0.8 mL) was transferred to a new 1.5 mL Eppendorf tube and evaporated to dryness under vacuum. The dried residue was reconstituted with 100 μL methanol, vortex-mixed for 30 s, and centrifuged at 14,000 rpm for 5 min. Finally, 10 μL of the supernatant liquid was immediately subjected to HPLC–MS/MS analysis. The system control and data analysis were performed by AB Sciex Analyst software (the software version: Analyst 1.5.1). Retention time for Rb1 was tR = 3.80 ± 0.01 min and for IS digoxin tR = 3.13 ± 0.01 min. The lowest limits of quantitation of Rb1 in cell lysate, plasma, and brain homogenate were 1, 2.5, and 1 ng/mL, respectively. The recoveries were higher than 90%; the relative standard deviations (SD) of intra-day and inter-day were lower than 10%.

[3] = set-up: method as in Li et al., 2007; conditions: rats, TPNS injection 10.0 mg/kg intravenous; ref Li et al., 2007; cited from earlier work
[4] = 7.5-960 μg/mL Rb1, 37°C, 120 min, Michaelis-Menten fit

For `CC(C)=CCC[C@](C)(O[C@@H]1O[C@H](CO[C@@H]2O[C@H](CO)[C@@H](O)[C@H](O)[C@H]2O)[C@@H](O)[C@H](O)[C@H]1O)[C@H]1CC[C@]2(C)[C@@H]1[C@H](O)C[C@@H]1[C@@]3(C)CC[C@H](O[C@@H]4O[C@H](CO)[C@@H](O)[C@H](O)[C@H]4O[C@@H]4O[C@H](CO)[C@@H](O)[C@H](O)[C@H]4O)C(C)(C)[C@@H]3CC[C@]12C` [Rb1, Ginsenoside Rb1], the “intracellular amounts of Rb1 at 37°C relative to 4°C” value ([1]; 60 μg/mL Rb1) was “about two to threefold”, the “time at which steady-state uptake occurred” value ([1]; 60 μg/mL Rb1, 37°C) was 120 min and the Km [1, 4] was 119 ± 15.6 µM. The “Vmax of Rb1 uptake” value [1, 4] was 0.0034 ± 0.0003 nmol/(mg protein ⋅ min), the “nonsaturable component (Pdiff) of Rb1 transport” value ([1]; 37°C) was 0.0023 μL/(mg protein ⋅ min) and the “share of total Rb1 uptake accounted for by the saturable component” value ([1]; low concentration range) was 90%. For the same compound, the “Brain-to-plasma concentration ratio (Kp)” value ([2]; 0.5 h, phloretin-treated (5 mg/kg i.v., 1 week)) was 2.15 ± 0.19 μL/g brain, the “Brain-to-plasma concentration ratio (Kp)” value ([2]; 0.5 h, untreated normal rats) was 7.09 ± 1.01 μL/g brain and the “Brain-to-plasma concentration ratio (Kp)” value ([2]; 2 h, phloretin-treated (5 mg/kg i.v., 1 week)) was 2.56 ± 0.06 μL/g brain. The “Brain-to-plasma concentration ratio (Kp)” value ([2]; 2 h, untreated normal rats) was 4.9 ± 0.35 μL/g brain, the “Brain-to-plasma concentration ratio (Kp)” value ([2]; 6 h, phloretin-treated (5 mg/kg i.v., 1 week)) was 1.59 ± 0.005 μL/g brain and the “Brain-to-plasma concentration ratio (Kp)” value ([2]; 6 h, untreated normal rats) was 3.24 ± 0.53 μL/g brain. It also gave a concentration at 0.5 h ([2]; brain, intravenous, 0.5 h, phloretin-treated (5 mg/kg i.v., 1 week), read-out: Brain concentration) of 105 ± 15.1 ng/g, a concentration at 2 h ([2]; brain, intravenous, 2 h, phloretin-treated (5 mg/kg i.v., 1 week), read-out: Brain concentration) of 84.8 ± 4.1 ng/g and a concentration at 6 h ([2]; brain, intravenous, 6 h, phloretin-treated (5 mg/kg i.v., 1 week), read-out: Brain concentration) of 39.9 ± 4.9 ng/g. For the same compound, the concentration at 0.5 h ([2]; brain, iv, 0.5 h, untreated normal rats, read-out: Brain concentration) was 490 ± 58.3 ng/g, the concentration at 2 h ([2]; brain, iv, 2 h, untreated normal rats, read-out: Brain concentration) was 194 ± 11.1 ng/g and the concentration at 6 h ([2]; brain, iv, 6 h, untreated normal rats, read-out: Brain concentration) was 114 ± 24 ng/g. For the same compound, the concentration at 0.5 h ([2]; plasma, intravenous, 0.5 h, phloretin-treated (5 mg/kg i.v., 1 week), read-out: Plasma concentration) was 48700 ± 2900 ng/mL, the concentration at 2 h ([2]; plasma, intravenous, 2 h, phloretin-treated (5 mg/kg i.v., 1 week), read-out: Plasma concentration) was 33200 ± 1400 ng/mL and the concentration at 6 h ([2]; plasma, intravenous, 6 h, phloretin-treated (5 mg/kg i.v., 1 week), read-out: Plasma concentration) was 27000 ± 1500 ng/mL. The concentration at 0.5 h ([2]; plasma, iv, 0.5 h, untreated normal rats, read-out: Plasma concentration) was 69300 ± 4500 ng/mL, the concentration at 2 h ([2]; plasma, iv, 2 h, untreated normal rats, read-out: Plasma concentration) was 39700 ± 4100 ng/mL and the concentration at 6 h ([2]; plasma, iv, 6 h, untreated normal rats, read-out: Plasma concentration) was 35200 ± 3000 ng/mL. For the same compound, the “duration in brain tissue” value [3] was about 24 h and the “largest content in brain tissue” value [3] was “about 1.4 μg/g”.
